From ChEMBL document CHEMBL3797105, “Investigation of triazole-linked indole and oxindole glycoconjugates as potential anticancer agents: novel Akt/PKB signaling pathway inhibitors” (Medchemcomm, 2016)
Active and inactive are the calls of the source. The rule behind the calls is not given here.

Experiments:
[1] = Cell cycle arrest in human DU145 cells assessed as accumulation at sub G1 phase at 20 uM after 48 hrs by propidium iodide staining based flow cytometry (reference value: 2.30%); format: functional; conditions: DU-145
[2] = Cell cycle arrest in human DU145 cells assessed as accumulation at G2/M phase at 15 uM after 48 hrs by propidium iodide staining based flow cytometry (reference value: 15.81%); format: functional; conditions: DU-145
[3] = Cell cycle arrest in human DU145 cells assessed as accumulation at G2/M phase at 25 uM after 48 hrs by propidium iodide staining based flow cytometry (reference value: 15.81%); format: functional; conditions: DU-145
[4] = Cell cycle arrest in human DU145 cells assessed as accumulation at S phase at 10 uM after 48 hrs by propidium iodide staining based flow cytometry (reference value: 8.62%); format: functional; conditions: DU-145
DU-145 [5] = assay: Induction of morphological changes in human DU145 cells after 48 hrs by microscopic analysis; format: functional, cell-based
A549 = assay: Cytotoxicity against human A549 cells after 48 hrs by sulforhodamine B assay; format: functional, cell-based; conditions: A549, 48 h
[6] = Cell cycle arrest in human DU145 cells assessed as accumulation at G0/G1 phase at 25 uM after 48 hrs by propidium iodide staining based flow cytometry (reference value: 61.28%); format: functional; conditions: DU-145
[7] = Cell cycle arrest in human DU145 cells assessed as accumulation at S phase at 20 uM after 48 hrs by propidium iodide staining based flow cytometry (reference value: 8.62%); format: functional; conditions: DU-145
DU-145 [8] = assay: Induction of apoptosis in human DU145 cells assessed as activation of caspase 9 using […] as substrate preincubated for 48 hrs followed by substrate addition measured after 2 hrs by fluorescence analysis; format: functional, cell-based
[9] = Cell cycle arrest in human DU145 cells assessed as accumulation at G0/G1 phase at 10 uM after 48 hrs by propidium iodide staining based flow cytometry (reference value: 61.28%); format: functional; conditions: DU-145
DU-145 [10] = assay: Induction of apoptosis in human DU145 cells assessed as activation of caspase 8 using Ac-VETD-AMC as substrate preincubated for 48 hrs followed by substrate addition measured after 2 hrs by fluorescence analysis; format: functional, cell-based
DU-145 [11] = assay: Inhibition of colony formation in human DU145 cells after 9 days by crystal violet staining based microscopic analysis; format: functional, cell-based
DU-145 [12] = assay: Inhibition of Akt phosphorylation in human DU145 cells after 48 hrs by Western blot analysis; format: cell-based
[13] = Cell cycle arrest in human DU145 cells assessed as accumulation at G0/G1 phase at 15 uM after 48 hrs by propidium iodide staining based flow cytometry (reference value: 61.28%); format: functional; conditions: DU-145
[14] = Cell cycle arrest in human DU145 cells assessed as accumulation at sub G1 phase at 25 uM after 48 hrs by propidium iodide staining based flow cytometry (reference value: 2.30%); format: functional; conditions: DU-145
[15] = Cell cycle arrest in human DU145 cells assessed as accumulation at G0/G1 phase at 5 uM after 48 hrs by propidium iodide staining based flow cytometry (reference value: 61.28%); format: functional; conditions: DU-145
[16] = Cytotoxicity against human DU145 cells after 48 hrs by sulforhodamine B assay; format: functional, cell-based; conditions: DU-145, 48 h
[17] = Cell cycle arrest in human DU145 cells assessed as accumulation at S phase at 25 uM after 48 hrs by propidium iodide staining based flow cytometry (reference value: 8.62%); format: functional; conditions: DU-145
[18] = Cell cycle arrest in human DU145 cells assessed as accumulation at sub G1 phase at 15 uM after 48 hrs by propidium iodide staining based flow cytometry (reference value: 2.30%); format: functional; conditions: DU-145
DU-145 [19] = assay: Inhibition of Akt in human DU145 cells assessed as increase in p27Kip1 levels after 48 hrs by Western blot analysis; format: cell-based
[20] = Cell cycle arrest in human DU145 cells assessed as accumulation at G2/M phase at 20 uM after 48 hrs by propidium iodide staining based flow cytometry (reference value: 15.81%); format: functional; conditions: DU-145
[21] = Cell cycle arrest in human DU145 cells assessed as accumulation at G0/G1 phase at 20 uM after 48 hrs by propidium iodide staining based flow cytometry (reference value: 61.28%); format: functional; conditions: DU-145
[22] = Cell cycle arrest in human DU145 cells assessed as accumulation at G2/M phase at 5 uM after 48 hrs by propidium iodide staining based flow cytometry (reference value: 15.81%); format: functional; conditions: DU-145
[23] = Cytotoxicity against mouse NIH/3T3 cells after 48 hrs by sulforhodamine B assay; conditions: NIH3T3, 48 h
[24] = Cell cycle arrest in human DU145 cells assessed as accumulation at sub G1 phase at 10 uM after 48 hrs by propidium iodide staining based flow cytometry (reference value: 2.30%); format: functional; conditions: DU-145
DU-145 [25] = assay: Induction of apoptosis in human DU145 cells assessed as activation of caspase 3 using Ac-DEVD AMC as substrate at 5 to 25 uM preincubated for 48 hrs followed by substrate addition measured after 2 hrs by fluorescence analysis; format: functional, cell-based
MCF7 = assay: Cytotoxicity against human MCF7 cells after 48 hrs by sulforhodamine B assay; format: functional, cell-based; conditions: MCF7, 48 h
[26] = Cell cycle arrest in human DU145 cells assessed as accumulation at G2/M phase at 10 uM after 48 hrs by propidium iodide staining based flow cytometry (reference value: 15.81%); format: functional; conditions: DU-145
[27] = Cell cycle arrest in human DU145 cells assessed as accumulation at S phase at 5 uM after 48 hrs by propidium iodide staining based flow cytometry (reference value: 8.62%); format: functional; conditions: DU-145
[28] = Cell cycle arrest in human DU145 cells assessed as accumulation at sub G1 phase at 5 uM after 48 hrs by propidium iodide staining based flow cytometry (reference value: 2.30%); format: functional; conditions: DU-145
HeLa = assay: Cytotoxicity against human HeLa cells after 48 hrs by sulforhodamine B assay; format: functional, cell-based
[29] = Cell cycle arrest in human DU145 cells assessed as accumulation at S phase at 15 uM after 48 hrs by propidium iodide staining based flow cytometry (reference value: 8.62%); format: functional; conditions: DU-145

CC(=O)OC[C@H]1O[C@@H](n2cc(CN3C(=O)/C(=C/c4ccc(C)cc4)c4ccccc43)nn2)[C@H](OC(C)=O)[C@@H](OC(C)=O)[C@@H]1OC(C)=O gave an Activity [1] of 34.3%, an Activity [2] of 14.9% and an Activity [3] of 9.05%. The Activity [4] was 7.56%, the Activity (DU-145 [5]) was “Dose-dependent effect” and the IC50 (A549) was 16 µM. For the same compound, the Activity [6] was 41.4%, the Activity [7] was 5.72% and the Activity (DU-145 [8]) was “Dose-dependent effect”. The Activity [9] was 48.1%, the Activity (DU-145 [10]) was “Dose-dependent effect” and the inhibition (DU-145 [11]) was “Dose-dependent effect”. For the same compound, the inhibition (DU-145 [12]) was “Active”, the Activity [13] was 46.6% and the Activity [14] was 37.5%. For the same compound, the Activity [15] was 59.1%, the IC50 [16] was 9.3 µM and the Activity [17] was 4.86%. For the same compound, the Activity [18] was 17.2%, the inhibition (DU-145 [19]) was “Dose-dependent effect” and the Activity [20] was 10.9%. The Activity [21] was 40.5%, the Activity [22] was 12.6% and the IC50 [23] was 73.3 µM. The Activity [24] was 14.4%, the Activity (DU-145 [25]) was “Active” and the IC50 (MCF7) was > 100 µM. For the same compound, the Activity [26] was 16.7%, the Activity [27] was 6.85% and the Activity [28] was 7.12%. For the same compound, the IC50 (HeLa) was 85.6 µM and the Activity [29] was 7.64%.

Work on CC(=O)OC[C@H]1O[C@@H](n2cc(Cn3cc(/C=C/C(=O)c4ccccc4)c4ccccc43)nn2)[C@H](OC(C)=O)[C@@H](OC(C)=O)[C@@H]1OC(C)=O yielded an Activity [1] of 82.4%, an Activity [2] of 11.9% and an Activity [3] of 1.01%. The Activity [4] was 4.41%, the Activity (DU-145 [5]) was “Dose-dependent effect” and the IC50 (A549) was 16.3 µM. For the same compound, the Activity [6] was 12%, the Activity [7] was 1.34% and the Activity (DU-145 [8]) was “Dose-dependent effect”. For the same compound, the Activity [9] was 21.2%, the Activity (DU-145 [10]) was “Dose-dependent effect” and the inhibition (DU-145 [11]) was “Dose-dependent effect”. The inhibition (DU-145 [12]) was “Active”, the Activity [13] was 21.5% and the Activity [14] was 84.1%. The Activity [15] was 75%, the IC50 [16] was 14.4 µM and the Activity [17] was 0.8%. For the same compound, the Activity [18] was 54%, the inhibition (DU-145 [19]) was “Dose-dependent effect” and the Activity [20] was 1.87%. The Activity [21] was 12.9%, the Activity [22] was 8.22% and the IC50 [23] was > 200 µM. The Activity [24] was 43.7%, the Activity (DU-145 [25]) was “Active” and the IC50 (MCF7) was 23.9 µM. The Activity [26] was 16.2%, the Activity [27] was 4.72% and the Activity [28] was 4.53%. It also gave an IC50 (HeLa) of 33 µM and an Activity [29] of 3.82%.
